Measurements from US9890156B2, “Bicyclic heterocycles as FGFR4 inhibitors” (Incyte Corporation, priority 2015, dated 2018).
Like-named read-outs stand apart in the source and are kept apart here.

Experiments:
FGFR1 = FGFR1 (Homo sapiens (Human), UniProt P11362); assay: FGFR Enzymatic Assay (FRET, peptide phosphorylation), FGFR1; conditions: read-out: FGFR1 IC50; pre-incubated for 4 hours; ATP 210 uM
FGFR2 = FGFR2 (Homo sapiens (Human), UniProt P21802); assay: FGFR Enzymatic Assay (FRET, peptide phosphorylation), FGFR2; conditions: read-out: FGFR2 IC50; pre-incubated for 4 hours; ATP 100 uM
Sequence of FGFR2 (P21802 22-821): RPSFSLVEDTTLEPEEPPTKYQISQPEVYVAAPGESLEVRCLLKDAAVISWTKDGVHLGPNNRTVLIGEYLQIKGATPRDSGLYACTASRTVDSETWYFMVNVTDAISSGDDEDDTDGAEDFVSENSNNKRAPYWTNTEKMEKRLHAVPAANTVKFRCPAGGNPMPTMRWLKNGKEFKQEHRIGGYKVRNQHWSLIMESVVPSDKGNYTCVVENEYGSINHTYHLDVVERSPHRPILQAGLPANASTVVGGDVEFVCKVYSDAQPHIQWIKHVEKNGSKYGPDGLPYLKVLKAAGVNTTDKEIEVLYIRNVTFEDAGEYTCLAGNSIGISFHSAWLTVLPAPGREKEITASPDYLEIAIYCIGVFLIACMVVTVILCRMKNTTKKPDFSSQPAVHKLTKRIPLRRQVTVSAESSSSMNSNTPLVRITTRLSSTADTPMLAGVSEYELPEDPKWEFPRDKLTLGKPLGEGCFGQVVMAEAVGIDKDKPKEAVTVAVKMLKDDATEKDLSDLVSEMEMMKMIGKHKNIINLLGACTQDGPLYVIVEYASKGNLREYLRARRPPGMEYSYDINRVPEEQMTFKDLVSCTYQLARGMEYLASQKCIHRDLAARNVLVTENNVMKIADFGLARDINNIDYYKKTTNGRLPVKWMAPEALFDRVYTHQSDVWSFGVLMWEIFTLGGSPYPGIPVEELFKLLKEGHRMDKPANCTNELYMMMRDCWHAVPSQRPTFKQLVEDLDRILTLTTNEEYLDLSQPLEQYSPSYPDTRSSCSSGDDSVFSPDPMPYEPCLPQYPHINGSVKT

FGFR3 = FGFR3 (Homo sapiens (Human), UniProt P22607); assay: FGFR Enzymatic Assay (FRET, peptide phosphorylation), FGFR3; type: biochemical; conditions: pre-incubated for 4 hours; ATP 140 μM
Sequence of FGFR3 (P22607 23-806): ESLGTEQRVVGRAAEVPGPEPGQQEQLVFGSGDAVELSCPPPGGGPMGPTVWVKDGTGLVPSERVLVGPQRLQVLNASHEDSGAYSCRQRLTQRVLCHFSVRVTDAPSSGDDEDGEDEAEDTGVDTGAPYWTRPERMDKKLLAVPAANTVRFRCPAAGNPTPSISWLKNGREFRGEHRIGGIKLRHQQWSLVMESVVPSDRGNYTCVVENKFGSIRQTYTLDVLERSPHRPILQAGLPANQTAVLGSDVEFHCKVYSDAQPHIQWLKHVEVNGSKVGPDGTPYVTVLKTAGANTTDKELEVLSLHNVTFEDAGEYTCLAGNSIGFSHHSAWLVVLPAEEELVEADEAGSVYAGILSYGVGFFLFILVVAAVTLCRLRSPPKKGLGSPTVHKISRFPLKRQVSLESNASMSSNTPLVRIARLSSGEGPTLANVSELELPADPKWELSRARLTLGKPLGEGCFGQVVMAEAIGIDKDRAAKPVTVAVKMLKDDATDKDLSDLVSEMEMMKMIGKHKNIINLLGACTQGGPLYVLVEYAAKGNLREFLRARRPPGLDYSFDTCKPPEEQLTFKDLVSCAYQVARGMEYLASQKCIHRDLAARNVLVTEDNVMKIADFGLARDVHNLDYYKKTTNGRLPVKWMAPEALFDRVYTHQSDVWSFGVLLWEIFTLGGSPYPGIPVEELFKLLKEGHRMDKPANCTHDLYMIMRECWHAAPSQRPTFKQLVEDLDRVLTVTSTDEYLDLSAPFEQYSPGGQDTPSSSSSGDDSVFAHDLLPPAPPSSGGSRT

FGFR4 = FGFR4 (Homo sapiens (Human), UniProt P22455); assay: FGFR Enzymatic Assay (FRET, peptide phosphorylation), FGFR4
Sequence of FGFR4 (P22455 22-802): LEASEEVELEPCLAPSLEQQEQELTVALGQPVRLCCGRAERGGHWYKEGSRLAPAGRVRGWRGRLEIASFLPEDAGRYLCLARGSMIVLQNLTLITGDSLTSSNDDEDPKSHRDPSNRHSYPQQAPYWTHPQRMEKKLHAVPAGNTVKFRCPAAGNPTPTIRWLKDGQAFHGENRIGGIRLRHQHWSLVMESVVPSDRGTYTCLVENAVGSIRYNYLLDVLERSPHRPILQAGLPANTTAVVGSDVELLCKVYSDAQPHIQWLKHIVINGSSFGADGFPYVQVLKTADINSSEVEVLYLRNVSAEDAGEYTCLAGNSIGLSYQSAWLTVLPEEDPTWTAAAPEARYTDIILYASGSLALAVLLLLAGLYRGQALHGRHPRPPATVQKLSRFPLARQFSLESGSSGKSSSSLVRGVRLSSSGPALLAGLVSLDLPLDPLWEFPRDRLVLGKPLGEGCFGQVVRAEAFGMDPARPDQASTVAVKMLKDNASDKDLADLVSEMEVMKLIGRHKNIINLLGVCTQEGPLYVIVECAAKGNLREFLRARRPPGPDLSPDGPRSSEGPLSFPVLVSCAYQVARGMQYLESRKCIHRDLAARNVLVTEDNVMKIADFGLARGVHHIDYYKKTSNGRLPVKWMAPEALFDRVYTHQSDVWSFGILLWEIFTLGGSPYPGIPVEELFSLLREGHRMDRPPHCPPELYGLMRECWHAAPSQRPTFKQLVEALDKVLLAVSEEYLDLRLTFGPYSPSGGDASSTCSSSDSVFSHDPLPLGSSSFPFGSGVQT

[1] = read-out: FGFR4 IC50, pre-incubated for 4 hours, ATP 600 uM

Sequence of FGFR1 (P11362 22-822): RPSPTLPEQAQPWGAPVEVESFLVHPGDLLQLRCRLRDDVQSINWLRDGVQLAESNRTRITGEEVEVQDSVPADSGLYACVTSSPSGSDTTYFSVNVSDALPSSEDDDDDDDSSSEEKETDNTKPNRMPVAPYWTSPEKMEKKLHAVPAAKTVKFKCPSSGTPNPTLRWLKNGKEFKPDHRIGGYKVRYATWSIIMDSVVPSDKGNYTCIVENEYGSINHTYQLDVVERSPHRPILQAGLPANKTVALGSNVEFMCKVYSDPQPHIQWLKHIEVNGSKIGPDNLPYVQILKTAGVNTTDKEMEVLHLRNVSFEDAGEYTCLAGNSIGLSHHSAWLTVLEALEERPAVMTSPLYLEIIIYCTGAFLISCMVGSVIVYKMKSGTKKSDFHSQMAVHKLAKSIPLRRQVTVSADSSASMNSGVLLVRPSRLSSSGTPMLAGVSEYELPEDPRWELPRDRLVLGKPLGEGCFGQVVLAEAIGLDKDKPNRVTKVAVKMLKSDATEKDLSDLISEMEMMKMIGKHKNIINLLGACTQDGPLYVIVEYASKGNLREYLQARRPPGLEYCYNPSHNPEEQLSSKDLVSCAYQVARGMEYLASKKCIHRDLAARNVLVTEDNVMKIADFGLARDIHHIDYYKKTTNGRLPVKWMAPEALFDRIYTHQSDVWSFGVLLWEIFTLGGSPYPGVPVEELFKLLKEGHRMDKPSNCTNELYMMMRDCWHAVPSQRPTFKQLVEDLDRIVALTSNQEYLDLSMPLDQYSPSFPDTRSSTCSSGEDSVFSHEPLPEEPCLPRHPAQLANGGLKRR

Row | IC50 (FGFR1) | IC50 (FGFR2) | IC50 (FGFR3) | IC50 (FGFR4; [1]) | IC50 (FGFR4) | Compound
1 | > 200 nM | > 200 nM | > 200 nM | < 10 nM |  | C=CC(=O)NCc1cc2c(cn1)CN(c1c(F)c(OC)cc(OC)c1F)C(=O)N2CC#N [Example 20, N-((1-(cyanomethyl)-3-(2,6-difluoro-3,5-dimethoxyphenyl)-2-oxo-1,2,3,4-tetrahydropyrido[4,3-d]pyrimidin-7-yl)methyl)acrylamide]
2 | > 200 nM | > 200 nM | > 200 nM | < 10 nM |  | C=CC(=O)NCc1cc2c(cn1)CN(c1c(F)c(OC)cc(OC)c1F)C(=O)N2CC(F)(F)F [Example 21, N-((3-(2,6-difluoro-3,5-dimethoxyphenyl)-2-oxo-1-(2,2,2-trifluoroethyl)-1,2,3,4-tetrahydropyrido[4,3-d]pyrimidin-7-yl)methyl)acrylamide]
3 | > 200 nM | > 200 nM | > 200 nM |  | 10 to 30 nM | C=CC(=O)NCc1cc2c(cn1)CN(c1c(F)c(OC)cc(OC)c1F)C(=O)N2C [Example 22, N-((3-(2,6-difluoro-3,5-dimethoxyphenyl)-1-methyl-2-oxo-1,2,3,4-tetrahydropyrido[4,3-d]pyrimidin-7-yl)methyl)acrylamide]
5 | > 200 nM | > 200 nM | > 200 nM |  | 10 to 30 nM | C=CC(=O)NCc1cc2c(cn1)CN(c1c(F)c(OC)cc(OC)c1F)C(=O)N2C1CCC1 [Example 25, N-((1-cyclobutyl-3-(2,6-difluoro-3,5-dimethoxyphenyl)-2-oxo-1,2,3,4-tetrahydropyrido[4,3-d]pyrimidin-7-yl)methyl)acrylamide]
6 | > 200 nM | > 200 nM | > 200 nM |  | 10 to 30 nM | C=CC(=O)NCc1cc2c(cn1)CN(c1c(F)c(OC)cc(OC)c1F)C(=O)N2c1ccncc1 [Example 26, N-((3-(2,6-difluoro-3,5-dimethoxyphenyl)-2-oxo-1-(pyridin-4-yl)-1,2,3,4-tetrahydropyrido[4,3-d]pyrimidin-7-yl)methyl)acrylamide]
7 | > 200 nM | > 200 nM | > 200 nM | < 10 nM |  | C=CC(=O)NCc1cc2c(cn1)CN(c1c(F)c(OC)cc(OC)c1F)C(=O)N2CCF [Example 27, N-((3-(2,6-difluoro-3,5-dimethoxyphenyl)-1-(2-fluoroethyl)-2-oxo-1,2,3,4-tetrahydropyrido[4,3-d]pyrimidin-7-yl)methyl)acrylamide]
8 | > 200 nM | > 200 nM | > 200 nM | < 10 nM |  | C=CC(=O)NCc1cc2c(cn1)CN(c1c(F)c(OC)cc(OC)c1F)C(=O)N2C[C@@H]1CCOC1 [Example 31, (S)—N-((3-(2,6-difluoro-3,5-dimethoxyphenyl)-2-oxo-1-((tetrahydrofuran-3-yl)methyl)-1,2,3,4-tetrahydropyrido[4,3-d]pyrimidin-7-yl)methyl)acrylamide]
10 | > 200 nM | > 200 nM | > 200 nM | < 10 nM |  | C=CC(=O)NCc1cc2c(cn1)CN(c1c(F)c(OC)cc(OC)c1F)C(=O)N2CC1CCN(C(=O)NC(C)C)CC1 [Example 34, 4-((7-(acrylamidomethyl)-3-(2,6-difluoro-3,5-dimethoxyphenyl)-2-oxo-3,4-dihydropyrido[4,3-d]pyrimidin-1(2H)-yl)methyl)-N-isopropylpiperidine-1-carboxamide]
11 | > 200 nM | > 200 nM | > 200 nM | < 10 nM |  | C=CC(=O)NCc1cc2c(cn1)CN(c1c(F)c(OC)cc(OC)c1F)C(=O)N2CC1CCN(S(C)(=O)=O)CC1 [Example 35, N-((3-(2,6-difluoro-3,5-dimethoxyphenyl)-1-((1-(methylsulfonyl)piperidin-4-yl)methyl)-2-oxo-1,2,3,4-tetrahydropyrido[4,3-d]pyrimidin-7-yl)methyl)acrylamide]
12 | > 200 nM | > 200 nM | > 200 nM | < 10 nM |  | C=CC(=O)NCc1cc2c(cn1)CN(c1c(Cl)c(OC)cc(OC)c1Cl)C(=O)N2CC [Example 36, N-((3-(2,6-dichloro-3,5-dimethoxyphenyl)-1-ethyl-2-oxo-1,2,3,4-tetrahydropyrido[4,3-d]pyrimidin-7-yl)methyl)acrylamide]
13 | > 200 nM | > 200 nM | > 200 nM |  | 10 to 30 nM | C=CC(=O)NCc1ncc2c(c1C)C1(CC1)C(=O)N(c1c(F)c(OC)cc(OC)c1F)C2 [Example 37, N-((2′-(2,6-difluoro-3,5-dimethoxyphenyl)-5′-methyl-3′-oxo-2′,3′-dihydro-1′H-spiro[cyclopropane-1,4′-[2,7]naphthyridine]-6′-yl)methyl)acrylamide]
